Experimental data published in patent US8486924B2, “Taxane delivery system” (Celator Pharmaceuticals, Inc., priority 2007, dated 2013).

Columns and labels:
[1] = prodrug/POPC/2.5kPS3k (1:1:2) nanoparticles in water; volume weighted average
Description: The prodrug, co-lipid and stabilizer polymers (typically on a 1:1:2 w/w basis) were dissolved in ethanol/THF (4:1) at a concentration of 40 mg/ml. The solvent was rapidly diluted with water using a four port CVIJ mixer^13, 14 with flow rates set at […] (solvent/water/water/water). Flow rates were controlled using Harvard Apparatus PHD2000 syringe pumps. The resultant solution was then dialyzed against water to remove residual solvent. […] When higher concentrations were required the dialyzed solution was diluted with equi-volumes of 600 mM sucrose and then concentrated using a 100 kD, 0.5 mm lumen, 60 cm path length MidGee hoop cartridge (GE Healthcare Life Sciences, Piscataway, N.J.) with a peristaltic pump. Particle size was determined using a Malvern Zetasizer Nano-ZS particle sizer and reported as volume weighted data.
Formulations were composed of a prodrug, a co-lipid and an amphipathic stabilizer in a weight ratio of 1:1:2, respectively at a concentration of 40 mg per mL of solvent. […] Poly(ethylene glycol)-b-polystyrene (2kPS3k or 2.5kPS3k) was used as the amphipathic stabilizer. Other stabilizers may also be used.

[2] = co-lipid POPC, prodrug/co-lipid/2.5kPS3k (1:1:2), vortexing 30 seconds
Description: The physical stability of formulations was investigated by examining changes in particle size after vortexing prodrug/co-lipid/2.5kPS3k (1:1:2) nanoparticles in water, 150 mM saline or 300 mM sucrose (Table 1). […] The increase in particle size was monitored by using dynamic light scattering to measure the Z average (the intensity weighted mean size of the particle distribution) value for samples before and after vigorous vortexing. The change in the Zave value was used as surrogate readout for the formation of aggregates or precipitates resulting from mechanical instability, where a higher value for ΔZave indicated a higher level of aggregation or precipitation (Table 1).

[3] = system: HT29 human colon carcinoma cells
Description: Female athymic nude mice (7-8 weeks old) were inoculated subcutaneously with 100 μl HT29 human colon carcinoma cells (2×10^6 cells) using a 26 gauge needle. Mice were randomly grouped (n=6/group) with a mean tumor size between 80 and 120 mg prior to first treatment. […] Subsequent injections were made according to the designated schedule. Tumor length and width measurements, body weight and in life observations were recorded 2-3 times per week. Tumor weight was calculated according to the formula (L×W^2)/2.
The relative efficacies of nanoparticle formulations of 1, 2, 4, 5, 6 and 7 were determined in the HT29 model using a 36 μmol/kg dose on a Q4Dx6 schedule (FIG. 3). Saline was used as a negative control.
(§1) The activity of 7 in POPC/2.5kPS3k nanoparticle formulations relative to paclitaxel was determined by comparing the efficacy of doses ranging from 0.25 to 3 mole equivalents of paclitaxel (FIG. 4) in the HT29 tumor model. Taxol® dosed at 23 μmol/kg on a Q2Dx5 schedule was used as a positive control.
The tumor growth data was analyzed by two methods to determine what dose of 7 would be equivalent to the Taxol® positive control.

[4] = Maximum tolerated dose on Q2D schedule in HT29 tumor model; format: in vivo, mice; settings: POPC/2.5kPS3k nanoparticle formulation; Q2Dx5 schedule
Description: as §1, with “control. The dosing regime was chosen since the greatest efficacy for 7 was observed on a Q2D schedule, which was also optimal for Taxol®, and the maximum tolerated treatment course at this Taxol® dose was 5 injections. The maximum tolerate dose of 7 on this schedule was approximately 3 paclitaxel equivalents (69 μmol/kg).” for “control.”

[5] = system: MCF-7 human tumor cell line; settings: read-out: IC50 values MCF-7; prodrug/POPC/2kPS3k (1:1:2) formulations; 72 hours; MTT; ± SD
[6] = mouse, in vivo
Description: Athymic nude mice (n=3/timepoint) were injected iv with test samples (10 μl/g body weight, to a maximum of 250 μl). Blood was collected at the designated time point by cardiac puncture and placed into EDTA coated microtainer tubes (BD Biosciences). The tubes were centrifuged at 2800 rpm for 10 minutes. Plasma was recovered and 50 μl aliquots analyzed by HPLC for drug content. Samples containing ^3H—CHE (50 μl) were diluted with PicoFluor40™ scintillation fluid (Packard) and counted on a Beckman-Coulter LS 6500 Multipurpose scintillation counter. The total drug (counts) per mouse in the blood compartment was calculated assuming a plasma volume of 0.04125 mL per gram of body weight.
Elimination studies tracking both the prodrug and the particle were conducted to obtain a more accurate description of the partitioning behavior of the prodrugs in vivo (FIG. 1). Prodrug elimination was followed by HPLC, while particle elimination rates were determined by labeling nanoparticles with tritiated cholesterylhexadecyl ether (3H—CHE).
Formulations comprised of 1/VES/2kPS3k (1:1:2) and 2/VES/2kPS3k (1:1:2) were labeled with trace amounts of ^3H—CHE and plasma levels of both the label and prodrug were monitored in Foxn1^nu mice (FIG. 1, Panel A).
Effect of prodrug partitioning on plasma drug elimination was determined. The prodrug panel was screened using prodrug/POPC/2kPS3k (1:1:2) nanoparticles in Foxn1^nu mice to determine elimination rates for the different prodrug conjugates (FIG. 2). […] Conjugates were formulated at a concentration of 0.7 mg/mL.
In order to estimate the partitioning half-life for each prodrug, it was assumed that 1 tracked the particle elimination rate based on the results discussed above. The elimination of all other prodrugs were then fitted to four parameter double exponential decay curves and normalized against 1.

[7] = system: A2780 human tumor cell line; experiment: MTT growth inhibition, A2780 cells, 72 hours; settings: read-out: IC50 values A2780, prodrug/POPC/2kPS3k (1:1:2) formulations, ± SD

CCCCCCCCCCCCCCCCCCCCCCOC(=O)COCC(=O)OC(C(=O)OC1CC2(O)C(OC(=O)c3ccccc3)C3C4(OC(C)=O)COC4CC(O)C3(C)C(=O)C(OC(C)=O)C(=C1C)C2(C)C)C(NC(=O)c1ccccc1)c1ccccc1 (stereo not shown) [Prodrug 7, 2′-O-(5″-O-docosanyldiglycoloyl)-paclitaxel]
Diameter [1]: 23 nm | ΔZave 150 mM saline ([2]; 150 mM saline): 24 nm | ΔZave 300 mM sucrose ([2]; 300 mM sucrose): 0 nm | ΔZave water ([2]; water): 18 nm | dose achieving parity with Taxol (delay in reaching tumor size of 125 mg from start of treatment) ([3]; HT29, Q2Dx5, fitted curve, normalized to Taxol 23 μmol/kg): 1.75 dose equivalents of paclitaxel | dose achieving parity with Taxol (delay in reaching tumor size of 300 mg relative to saline) ([3]; HT29, Q2Dx5, linear dose response, normalized to Taxol 23 μmol/kg): 1.65 paclitaxel equivalents | dose achieving equivalent efficacy to Taxol at MTD ([3]; HT29, titration 0.25x to 3x paclitaxel equivalents): approximately 1.7 paclitaxel equivalents | tumor size at day 60 ([3]; HT29, treated at MTD, Q2Dx5): below 50 mg | treatment induced delay in reaching a mean tumor size of 500 mm^3 ([3]; HT29 model, 36 μmol/kg, Q4Dx6, nanoparticle formulations): 17 days | maximum tolerated dose [4]: 69 µmol/kg | IC50 [5]: 23.5 ± 1.3 nM | partitioning half life [6]: ~10 h | IC50 [7]: 29.5 ± 5.2 nM
